In US20250154135A1, “M-CHOLINE RECEPTOR AGONIST COMPOUND, PREPARATION METHOD THEREFOR AND USE THEREOF” (NANJING GRITPHARMA CO., LTD., priority 2022, published 2025):
Several values for one entry are separate records, joined by “and”; a condition that tells them apart may be missing. Identical values can stand only once.

What was measured:
[1] = system: rabbit eyes; experiment: Irritation to rabbit eyes (Test Example 3); format: in vivo; conditions: 0.88% compared with 3.50%
Excerpt: Irritation: examined concurrently with the pupil diameter.
The numerical results of pupil changes are shown in Tables 3-1 to 3-4, and the changes in eye irritation phenomenon are shown in FIGS. 13 and 14.

[2] = system: rabbit pupil; experiment: Rabbit pupil diameter change, pilocarpine p-toluate at different concentrations (Test Example 3); format: in vivo
Protocol: Under the condition of normal saline, the onset time, strength of effect, duration of effect, and irritation of 1.25% pilocarpine hydrochloride and different concentrations (0.88%, 1.75%, 3.50%) of pilocarpine p-toluate were tested.
Each rabbit was subjected to eye drop administration in the left eye (using a pipette), with an administration volume of 100 μL.
Number of animals: 6 rabbits per compound.
Administration schedule: single administration.
• the pupil diameter of the left eye of the rabbits was measured at time points of −0.5 h (i.e., half an hour before administration), 5 min, 10 min, 15 min, 0.5 h, 3 h and 4 h relative to administration, with the measurement performed 3 times for each rabbit at each time point.

Structure (SMILES): CC[C@@H]1C(=O)OC[C@@H]1Cc1cncn1C [JQ-6, Pilocarpine p-toluate]
- irritation to rabbit eyes [1]: significantly lower than that caused by the 3.50% pilocarpine p-toluate
- strength of effect at each time point compared to 1.25% pilocarpine hydrochloride ([2]; 0.88% (half molar concentration of pilocarpine)): demonstrated increased strength of effect at each time point
- Percentage change in pupil diameter ([2]; 0.88%, 5 min, average of 6 rabbits): −10.07%
- Percentage change in pupil diameter ([2]; 0.88%, 5 min, individual rabbit): −4.80% and −6.70% and −13.54% and −9.41% and −12.03% and −13.93%
- Percentage change in pupil diameter ([2]; 0.88%, 10 min, average of 6 rabbits): −36.21%
- Percentage change in pupil diameter ([2]; 0.88%, 10 min, individual rabbit): −33.75% and −34.62% and −30.54% and −48.90% and −41.07% and −28.39%
- Percentage change in pupil diameter ([2]; 0.88%, 15 min, average of 6 rabbits): −40.86%
- Percentage change in pupil diameter ([2]; 0.88%, 15 min, individual rabbit): −43.40% and −41.17% and −36.73% and −43.68% and −50.07% and −30.13%
- Percentage change in pupil diameter ([2]; 0.88%, 0.5 h, average of 6 rabbits): −37.44%
- Percentage change in pupil diameter ([2]; 0.88%, 0.5 h, individual rabbit): −36.60% and −41.12% and −36.25% and −37.28% and −44.65% and −28.71%
- Percentage change in pupil diameter ([2]; 0.88%, 3 h, average of 6 rabbits): −10.34%
- Percentage change in pupil diameter ([2]; 0.88%, 3 h, individual rabbit): −9.65% and −14.66% and −12.43% and −7.91% and −14.57% and −2.85%
- Percentage change in pupil diameter ([2]; 0.88%, 4 h, average of 6 rabbits): 0.70%
- Percentage change in pupil diameter ([2]; 0.88%, 4 h, individual rabbit): 3.67% and −2.65% and 4.83% and −0.54% and −1.39% and 0.26%
- strength of effect at each time point compared to 1.25% pilocarpine hydrochloride ([2]; 1.75% (same molar concentration of pilocarpine)): the increase in strength of effect at each time point was more significant
- Percentage change in pupil diameter ([2]; 1.75%, 5 min, individual rabbit): −18.36% and −12.49% and −14.04%
- Percentage change in pupil diameter ([2]; 1.75%, 10 min, individual rabbit): −44.23% and −37.19% and −44.10%
- Percentage change in pupil diameter ([2]; 1.75%, 15 min, individual rabbit): −49.50% and −43.41% and −45.41%
- Percentage change in pupil diameter ([2]; 1.75%, 0.5 h, individual rabbit): −47.81% and −42.82% and −44.78%
- Percentage change in pupil diameter ([2]; 1.75%, 3 h, individual rabbit): −12.34% and −6.91%
- Percentage change in pupil diameter ([2]; 1.75%, 4 h, individual rabbit): −0.45% and −0.05%
- strength of effect at each time point compared to 1.25% pilocarpine hydrochloride ([2]; 3.50% (2 times molar concentration of pilocarpine)): significantly enhanced
